pIC50: −log10 of the molar value. Calls of active or inactive are those of the source. The rule behind the calls is not given here.
Tests used:
Human alphaherpesvirus 1 [1] = assay: Antiviral activity against Human herpesvirus 1 strain KOS infected Vero cells after 72 hr by plaque reduction assay; assay type: functional, organism-based; settings: for pIC50: read-out: IC50; for IC50: vero
[2] = Therapeutic index, ratio of CC50 for African green monkey Vero cells to IC50 for Herpes simplex virus 1 KOS; assay type: cell-based; settings: read-out: Ratio CC50/IC50
[3] = (§1) Cytotoxicity against Chlorocebus aethiops (African green monkey) Vero cells after 72 hr by XTT assay; assay type: cell-based; settings: chlorocebus sabaeus, Vero cells
Vero = assay: as §1; assay type: cell-based; settings: chlorocebus sabaeus, vero, 72 h
[4] = Selectivity index, ratio of CC25 for African green monkey Vero cells to IC25 for Herpes simplex virus 1 KOS; assay type: toxicity, cell-based; settings: read-out: Selectivity Index
Human alphaherpesvirus 1 [5] = assay: Antiviral activity against Human herpesvirus 1 strain KOS infected Vero cells at 20 umol/L incubated at 2 hr post-infection measured after 70 hr by plaque reduction assay; assay type: functional, organism-based
Human alphaherpesvirus 1 [6] = assay: Antiviral activity against Human herpesvirus 1 strain KOS infected Vero cells at 20 umol/L incubated at 4 hr post-infection measured after 68 hr by plaque reduction assay; assay type: functional, organism-based
Human alphaherpesvirus 1 [7] = assay: Antiviral activity against Human herpesvirus 1 strain KOS infected Vero cells at 20 umol/L incubated immediately after infection for 72 hr by plaque reduction assay; assay type: functional, organism-based
Human alphaherpesvirus 1 [8] = assay: Antiviral activity against Human herpesvirus 1 strain KOS infected Vero cells at 20 umol/L incubated for 4 hr prior to infection measured after 72 hr by plaque reduction assay; assay type: functional, organism-based
Human alphaherpesvirus 1 [9] = assay: Antiviral activity against Human herpesvirus 1 strain KOS infected Vero cells at 20 umol/L incubated for 2 hr prior to infection measured after 72 hr by plaque reduction assay; assay type: functional, organism-based
[10] = Human alphaherpesvirus 1, KOS, Vero, 72 h

Compound: CC1=C(C(=O)Nc2ccccc2Cl)C(c2cccs2)NC(=O)N1 (stereo not drawn)
- IC25 (Human alphaherpesvirus 1 [1]; [10]): 25.2 µM
- pIC50 (Human alphaherpesvirus 1 [1]; [10]): 4.09
- selectivity ratio [2]: > 1.2
- CC50 at 72 h [3]: > 100 µM
- CC25 (Vero): 98.9 µmol/L
- selectivity ratio [4]: 3.9

Compound: COC(=O)C1=C(C)NC(=O)NC1c1ccc(Br)cc1 (stereo not drawn)
- Activity (Human alphaherpesvirus 1 [5]): Active
- Activity (Human alphaherpesvirus 1 [6]): Active
- IC25 (Human alphaherpesvirus 1 [1]; [10]): 0.1 µM
- pIC50 (Human alphaherpesvirus 1 [1]; [10]): 6.05
- selectivity ratio [2]: 111
- CC50 at 72 h [3]: 100 µM
- CC25 (Vero): 12.3 µmol/L
- Activity (Human alphaherpesvirus 1 [7]): inactive
- selectivity ratio [4]: 123
- Activity (Human alphaherpesvirus 1 [8]): inactive
- Activity (Human alphaherpesvirus 1 [9]): inactive

Compound: CC1=C(C(=O)Nc2ccccc2Cl)C(c2cnc(CS)n2NCc2ccccc2)NC(=O)N1 (stereo not drawn)
- IC25 (Human alphaherpesvirus 1 [1]): inactive
- IC50 (Human alphaherpesvirus 1 [1]): Not Active
- selectivity ratio [2]: < 1
- CC50 at 72 h [3]: > 100 µM
- CC25 (Vero): > 100 µmol/L
- selectivity ratio [4]: < 1

Compound: CC1=C(C(=O)Nc2ccc(Cl)cc2)C(c2cccs2)NC(=O)N1 (stereo not drawn)
- IC25 (Human alphaherpesvirus 1 [1]; [10]): 11.7 µM
- pIC50 (Human alphaherpesvirus 1 [1]; [10]): 4.22
- selectivity ratio [2]: > 1.6
- CC50 at 72 h [3]: > 100 µM
- CC25 (Vero): 83.2 µmol/L
- selectivity ratio [4]: 7.1

Compound: CCOC(=O)C1=C(C)NC(=S)NC1c1ccc(Br)cc1 (stereo not drawn)
- IC25 (Human alphaherpesvirus 1 [1]; [10]): 87.3 µM
- pIC50 (Human alphaherpesvirus 1 [1]; [10]): 3.91
- selectivity ratio [2]: 0.31
- CC50 at 72 h [3]: 38.9 µM
- CC25 (Vero): 9.3 µmol/L
- selectivity ratio [4]: 0.1

Compound: CC1=C(C(=O)OCC(C)C)C(c2cccs2)NC(S)=N1 (stereo not drawn)
- IC25 (Human alphaherpesvirus 1 [1]; [10]): 0.6 µM
- pIC50 (Human alphaherpesvirus 1 [1]; [10]): 5.74
- selectivity ratio [2]: 48.6
- CC50 at 72 h [3]: 87.5 µM
- CC25 (Vero): 18.4 µmol/L
- selectivity ratio [4]: 30.6

Compound: CC1=C(C(=O)Nc2ccc(F)cc2)C(c2ccccc2)NC(=O)N1 (stereo not drawn)
- IC25 (Human alphaherpesvirus 1 [1]; [10]): 0.9 µM
- pIC50 (Human alphaherpesvirus 1 [1]; [10]): < 4.00
- selectivity ratio [2]: > 1
- CC50 at 72 h [3]: > 100 µM
- CC25 (Vero): 43.8 µmol/L
- selectivity ratio [4]: 48.6

Compound: CC1=C(C(=O)Nc2cccc(Cl)c2)C(c2cccs2)NC(=O)N1 (stereo not drawn)
- IC25 (Human alphaherpesvirus 1 [1]): inactive
- IC50 (Human alphaherpesvirus 1 [1]): Not Active
- selectivity ratio [2]: < 1
- CC50 at 72 h [3]: > 100 µM
- CC25 (Vero): 87.9 µmol/L
- selectivity ratio [4]: < 1

Compound: CC1=C(C(=O)Nc2ccccc2Cl)C(c2ccccc2Cl)NC(=S)N1 (stereo not drawn)
- IC25 (Human alphaherpesvirus 1 [1]; [10]): 0.7 µM
- pIC50 (Human alphaherpesvirus 1 [1]; [10]): < 4.00
- selectivity ratio [2]: > 1
- CC50 at 72 h [3]: > 100 µM
- CC25 (Vero): 24.5 µmol/L
- selectivity ratio [4]: 35

Compound: CC1=C(C(=O)Nc2ccc(Cl)cc2)C(c2cnc(CS)n2Nc2ccccc2)NC(=O)N1 (stereo not drawn)
- IC25 (Human alphaherpesvirus 1 [1]; [10]): 37 µM
- pIC50 (Human alphaherpesvirus 1 [1]; [10]): < 4.00
- selectivity ratio [2]: > 1
- CC50 at 72 h [3]: > 100 µM
- CC25 (Vero): 53.9 µmol/L
- selectivity ratio [4]: 1.4

Compound: CC1=C(C(=O)Nc2cccnc2)C(c2cccs2)NC(=O)N1 (stereo not drawn)
- IC25 (Human alphaherpesvirus 1 [1]): inactive
- IC50 (Human alphaherpesvirus 1 [1]): Not Active
- selectivity ratio [2]: < 1
- CC50 at 72 h [3]: > 100 µM
- CC25 (Vero): > 100 µmol/L
- selectivity ratio [4]: < 1

Compound: CC1=C(C(=O)Nc2ccccn2)C(c2cccs2)NC(=O)N1 (stereo not drawn)
- IC25 (Human alphaherpesvirus 1 [1]; [10]): 97.7 µM
- pIC50 (Human alphaherpesvirus 1 [1]; [10]): < 4.00
- selectivity ratio [2]: > 1
- CC50 at 72 h [3]: > 100 µM
- CC25 (Vero): > 100 µmol/L
- selectivity ratio [4]: > 1

Compound: CC1=C(C(=O)Nc2ccc(Br)cc2)C(c2ccccc2)NC(=O)N1 (stereo not drawn)
- IC25 (Human alphaherpesvirus 1 [1]; [10]): 0.2 µM
- pIC50 (Human alphaherpesvirus 1 [1]; [10]): 4.36
- selectivity ratio [2]: > 2.3
- CC50 at 72 h [3]: > 100 µM
- CC25 (Vero): 71.3 µmol/L
- selectivity ratio [4]: 356

Source: ChEMBL document CHEMBL3045494, “Inhibitory effect and structureactivity relationship of some Biginelli-type pyrimidines against HSV-1” (Med Chem Res, 2013)
